Read-outs that look alike come from different tables or passages of the source.
Tests used:
[1] = molecular target: B-Raf (Homo sapiens, UniProt P15056); test: Luciferase-coupled chemiluminescence kinase assay (ATP consumption), B-Raf; type: biochemical
Method: (§1) Tyrosine kinase activity is determined by 1) measurement of kinase-dependent ATP consumption by in the presence of a generic substrate such as […], tyrosine (pEY), by luciferase/luciferin-mediated chemiluminescence or; 2) incorporation of radioactive phosphate derived from ^33P-ATP into a generic substrate which has been adsorbed onto the well surface of polystyrene microtiter plates. Phosphorylated substrate products are quantified by scintillation spectrometry.
(§2) Luciferase-Coupled Chemiluminescence Assay Protocol
(§3) Kinase activity is measured as the percent of ATP consumed following the kinase reaction using luciferase-luciferin-coupled chemiluminescence. Reactions were conducted in 384-well white, medium binding microtiter plates (Greiner). Kinase reactions were initiated by combining test compounds, ATP and kinase in a 20 uL volume. The reaction mixture was incubated at ambient temperature for 3 hrs. For c-Raf, B-Raf, and B-RafV599E, […] of the enzyme was pre-incubated with compound in 20 mM Tris pH 7.5, 10 mM MgCl2, 0.03% TX-100, and 1 mM DTT for 30 minutes at room temperature. Following the kinase reaction, a 20 μL aliquot of luciferase-luciferin mix was added and the chemiluminescence signal measured using a Victor^2 plate reader (Perkin Elmer). The luciferase-luciferin mix contained 50 mM HEPES, pH 7.8, 67 mM oxalic acid (pH 7.8), 5 (or 50) mM DTT, 0.4% Triton X-100, 0.25 mg/mL coenzyme A, 63 μM AMP, 28 μg/mL luciferin and 40,000 units/mL luciferase. Total ATP consumption was limited to 25-60% and the IC50 values correlate well with those determined by radiometric assays.

[2] = molecular target: c-Raf (Homo sapiens, UniProt P04049); test: Luciferase-coupled chemiluminescence kinase assay (ATP consumption), c-Raf; type: biochemical
c-Raf, sequence (P04049 whole entry): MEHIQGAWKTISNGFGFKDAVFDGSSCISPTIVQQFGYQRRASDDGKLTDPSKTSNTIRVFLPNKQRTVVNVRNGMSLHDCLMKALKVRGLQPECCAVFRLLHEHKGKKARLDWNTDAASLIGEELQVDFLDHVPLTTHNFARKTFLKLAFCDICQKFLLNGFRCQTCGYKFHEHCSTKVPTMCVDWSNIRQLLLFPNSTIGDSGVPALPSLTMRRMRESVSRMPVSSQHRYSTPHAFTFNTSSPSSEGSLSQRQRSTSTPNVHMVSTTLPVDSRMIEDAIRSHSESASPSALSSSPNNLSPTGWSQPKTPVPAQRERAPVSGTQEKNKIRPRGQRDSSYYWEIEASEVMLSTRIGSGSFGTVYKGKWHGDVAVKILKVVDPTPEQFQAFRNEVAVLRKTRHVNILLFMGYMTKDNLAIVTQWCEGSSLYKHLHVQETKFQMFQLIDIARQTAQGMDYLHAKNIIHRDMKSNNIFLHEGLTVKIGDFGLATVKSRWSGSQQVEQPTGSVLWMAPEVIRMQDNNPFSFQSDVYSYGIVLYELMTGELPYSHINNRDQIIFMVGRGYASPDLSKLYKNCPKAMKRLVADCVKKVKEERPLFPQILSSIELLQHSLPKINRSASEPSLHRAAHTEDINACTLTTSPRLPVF
Method: as §1, §2, §3

[3] = read-out: bRaf (inhibition indicated as IC50)
[4] = read-out: cRaf-1 (inhibition indicated as IC50)

B-Raf, sequence (P15056 whole entry): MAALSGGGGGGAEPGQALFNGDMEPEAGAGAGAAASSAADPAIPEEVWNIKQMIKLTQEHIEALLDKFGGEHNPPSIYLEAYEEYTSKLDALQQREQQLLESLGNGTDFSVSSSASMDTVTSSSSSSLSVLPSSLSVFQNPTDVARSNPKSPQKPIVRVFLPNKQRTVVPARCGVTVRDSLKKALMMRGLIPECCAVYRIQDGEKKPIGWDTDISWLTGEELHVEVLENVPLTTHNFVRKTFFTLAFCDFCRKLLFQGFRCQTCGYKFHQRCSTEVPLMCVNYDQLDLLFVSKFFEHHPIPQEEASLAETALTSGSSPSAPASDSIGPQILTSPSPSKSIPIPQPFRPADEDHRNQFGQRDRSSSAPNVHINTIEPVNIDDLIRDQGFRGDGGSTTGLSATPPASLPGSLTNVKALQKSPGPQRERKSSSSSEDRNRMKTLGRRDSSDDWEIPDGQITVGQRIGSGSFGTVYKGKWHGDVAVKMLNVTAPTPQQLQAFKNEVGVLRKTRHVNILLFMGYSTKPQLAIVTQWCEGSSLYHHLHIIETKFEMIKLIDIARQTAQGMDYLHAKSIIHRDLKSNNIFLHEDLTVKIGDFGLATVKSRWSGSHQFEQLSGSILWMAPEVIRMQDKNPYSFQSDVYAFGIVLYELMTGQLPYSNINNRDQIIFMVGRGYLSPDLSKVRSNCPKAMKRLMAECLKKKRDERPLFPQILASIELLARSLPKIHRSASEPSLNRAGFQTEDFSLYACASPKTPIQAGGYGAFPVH

| SMILES | IC50 ([1]; read-out: bRaf IC50) [nM] | IC50 ([2]; read-out: cRaf-1 IC50) [nM] | IC50 [1, 3] [nM] | IC50 [2, 4] [nM] |
| --- | --- | --- | --- | --- |
| CNC(=O)Nc1nc2cc(C3(O)c4ccccc4C(=O)N3Cc3ccccc3)ccc2[nH]1 (stereo not drawn) [Entry 171, N-{5-[1-hydroxy-3-oxo-2-(phenylmethyl)-2,3-dihydro-1H-isoindol-1-yl]-1H-benzimidazol-2-yl}-N′-methylurea] | < 100 | < 100 |  |  |
| COC(=O)Nc1nc2cc(C3(O)c4ccccc4C(=O)N3c3cccc(Cl)c3)ccc2[nH]1 (stereo not drawn) [Entry 135, methyl {5-[2-(3-chlorophenyl)-1-hydroxy-3-oxo-2,3-dihydro-1H-isoindol-1-yl]-1H-benzimidazol-2-yl}carbamate] | < 100 | < 100 |  |  |
| COC(=O)Nc1nc2cc(C3(O)c4ccccc4C(=O)N3Cc3ccsc3)ccc2[nH]1 (stereo not drawn) [Entry 206, methyl {5-[1-hydroxy-3-oxo-2-(3-thienylmethyl)-2,3-dihydro-1H-isoindol-1-yl]-1H-benzimidazol-2-yl}carbamate] | < 100 | < 100 |  |  |
| COC(=O)Nc1nc2cc(C3(O)c4ccccc4C(=O)N3c3ccc(F)c(Br)c3)ccc2[nH]1 (stereo not drawn) [Entry 214, methyl {5-[2-(3-bromo-4-fluorophenyl)-1-hydroxy-3-oxo-2,3-dihydro-1H-isoindol-1-yl]-1H-benzimidazol-2-yl}carbamate] | < 100 | < 100 |  |  |
| O=C(Nc1nc2cc(C3(O)c4ccccc4C(=O)N3c3ccc(F)cc3)ccc2[nH]1)OCCN1CCCCC1 (stereo not drawn) [Entry 283, 2-piperidin-1-ylethyl {5-[2-(4-fluorophenyl)-1-hydroxy-3-oxo-2,3-dihydro-1H-isoindol-1-yl]-1H-benzimidazol-2-yl}carbamate] |  |  | 100 to 1000 | < 100 |
| COC(=O)Nc1nc2cc(C3(O)c4ccccc4C(=O)N3c3ccc(F)cc3)ccc2[nH]1 (stereo not drawn) [Entry 140, methyl {5-[2-(4-fluorophenyl)-1-hydroxy-3-oxo-2,3-dihydro-1H-isoindol-1-yl]-1H-benzimidazol-2-yl}carbamate] | < 100 | < 100 |  |  |
| N#Cc1cccc(N2C(=O)c3ccccc3C2(O)c2ccc3c(c2)NC(=O)CO3)c1 (stereo not drawn) [Entry 71, 3-[1-hydroxy-3-oxo-1-(3-oxo-3,4-dihydro-2H-1,4-benzoxazin-6-yl)-1,3-dihydro-2H-isoindol-2-yl]benzonitrile] | 1000 to 10000 | 1000 to 10000 |  |  |
| O=C(Nc1nc2cc(C3(O)c4ccccc4C(=O)N3c3cccc(Cl)c3F)ccc2[nH]1)OCCN1CCCCC1 (stereo not drawn) [Entry 293, 2-piperidin-1-ylethyl {5-[2-(3-chloro-2-fluorophenyl)-1-hydroxy-3-oxo-2,3-dihydro-1H-isoindol-1-yl]-1H-benzimidazol-2-yl}carbamate] |  |  | < 100 | < 100 |
| C=Cc1cccc(NC(=O)c2ccccc2C(=O)c2ccc3nc(NC(=O)OC)[nH]c3c2)c1F [Entry 418, methyl {6-[(2-{[(3-ethenyl-2-fluorophenyl)amino]carbonyl}phenyl)carbonyl]-1H-benzimidazol-2-yl}carbamate] |  |  | < 100 | < 100 |
| O=C1COc2ccc(C3(O)c4ccccc4C(=O)N3c3cccc(-c4ccccc4)c3)cc2N1 (stereo not drawn) [Entry 85, 6-(2-biphenyl-3-yl-1-hydroxy-3-oxo-2,3-dihydro-1H-isoindol-1-yl)-2H-1,4-benzoxazin-3(4H)-one] | ≥ 10000 | ≥ 10000 |  |  |
| COC(=O)Nc1nc2cc(C3(O)c4ccccc4C(=O)N3c3cccc(-c4ccccc4)c3)ccc2[nH]1 (stereo not drawn) [Entry 222, methyl [5-(2-biphenyl-3-yl-1-hydroxy-3-oxo-2,3-dihydro-1H-isoindol-1-yl)-1H-benzimidazol-2-yl]carbamate] | 1000 to 10000 | 1000 to 10000 |  |  |
| CCC(=O)Nc1nc2ccc(C3(O)c4ccccc4C(=O)N3c3ccc(F)cc3)cc2[nH]1 (stereo not drawn) [Entry 275, N-{6-[2-(4-fluorophenyl)-1-hydroxy-3-oxo-2,3-dihydro-1H-isoindol-1-yl]-1H-benzimidazol-2-yl}propanamide] |  |  | < 100 | < 100 |
| COC(=O)Nc1nc2cc(C3(O)c4ccccc4C(=O)N3c3cccc(Cl)c3C)ccc2[nH]1 (stereo not drawn) [Entry 284, methyl {5-[2-(3-chloro-2-methylphenyl)-1-hydroxy-3-oxo-2,3-dihydro-1H-isoindol-1-yl]-1H-benzimidazol-2-yl}carbamate] |  |  | < 100 | < 100 |
| O=C1c2ccccc2C(O)(c2ccc3[nH]ncc3c2)N1Cc1ccccc1 (stereo not drawn) [Entry 94, 3-hydroxy-3-(1H-indazol-5-yl)-2-(phenylmethyl)-2,3-dihydro-1H-isoindol-1-one] | 100 to 1000 | 100 to 1000 |  |  |
| O=C(Nc1nc2ccc(C3(O)c4ccccc4C(=O)N3c3cccc(Cl)c3F)cc2[nH]1)OCC(F)(F)F (stereo not drawn) [Entry 345, 2,2,2-trifluoroethyl {6-[2-(3-chloro-2-fluorophenyl)-1-hydroxy-3-oxo-2,3-dihydro-1H-isoindol-1-yl]-1H-benzimidazol-2-yl}carbamate] |  |  | < 100 | < 100 |
| COC(=O)Nc1nc2cc(C3(O)c4ccccc4C(=O)N3C3Cc4ccccc4C3)ccc2[nH]1 (stereo not drawn) [Entry 111, methyl {5-[2-(2,3-dihydro-1H-inden-2-yl)-1-hydroxy-3-oxo-2,3-dihydro-1H-isoindol-1-yl]-1H-benzimidazol-2-yl}carbamate] | ≥ 10000 | ≥ 10000 |  |  |
| COC(=O)Nc1nc2cc(C3(O)c4ccccc4C(=O)N3c3cccc(N)c3)ccc2[nH]1 (stereo not drawn) [Entry 261, methyl {5-[2-(3-aminophenyl)-1-hydroxy-3-oxo-2,3-dihydro-1H-isoindol-1-yl]-1H-benzimidazol-2-yl}carbamate] | < 100 | < 100 |  |  |
| COC(=O)Nc1nc2cc(C3(O)c4ccccc4C(=O)N3Cc3ccccc3C)ccc2[nH]1 (stereo not drawn) [Entry 133, methyl (5-{1-hydroxy-2-[(2-methylphenyl)methyl]-3-oxo-2,3-dihydro-1H-isoindol-1-yl}-1H-benzimidazol-2-yl)carbamate] | < 100 | < 100 |  |  |
| COC(=O)Nc1nc2cc(C3(O)c4ccccc4C(=O)N3Cc3ccco3)ccc2[nH]1 (stereo not drawn) [Entry 205, methyl {5-[2-(furan-2-ylmethyl)-1-hydroxy-3-oxo-2,3-dihydro-1H-isoindol-1-yl]-1H-benzimidazol-2-yl}carbamate] | < 100 | < 100 |  |  |
| COC(=O)Nc1nc2cc(C3(O)c4ccccc4C(=O)N3c3cccc(N(C)c4ccccc4)c3)ccc2[nH]1 (stereo not drawn) [Entry 267, methyl [5-(1-hydroxy-2-{3-[methyl(phenyl)amino]phenyl}-3-oxo-2,3-dihydro-1H-isoindol-1-yl)-1H-benzimidazol-2-yl]carbamate] | < 100 | < 100 |  |  |
| COc1cccc(N2C(=O)c3ccccc3C2(O)c2ccc3c(c2)NC(=O)CO3)c1 (stereo not drawn) [Entry 43, 6-{1-hydroxy-2-[3-(methyloxy)phenyl]-3-oxo-2,3-dihydro-1H-isoindol-1-yl}-2H-1,4-benzoxazin-3(4H)-one] | 100 to 1000 | 100 to 1000 |  |  |
| COC(=O)Nc1nc2cc(C3(O)c4ccccc4C(=O)N3c3cccc(S(C)(=O)=O)c3)ccc2[nH]1 (stereo not drawn) [Entry 219, methyl (5-{1-hydroxy-2-[3-(methylsulfonyl)phenyl]-3-oxo-2,3-dihydro-1H-isoindol-1-yl}-1H-benzimidazol-2-yl)carbamate] | 100 to 1000 | 100 to 1000 |  |  |
| COC(=O)Nc1nc2cc(C3(O)c4ccccc4C(=O)N3[C@H](C(=O)OC)C3CCCCC3)ccc2[nH]1 (stereo partly drawn) [Entry 192, methyl (2S)-cyclohexyl[1-hydroxy-1-(2-{[(methyloxy)carbonyl]amino}-1H-benzimidazol-5-yl)-3-oxo-1,3-dihydro-2H-isoindol-2-yl]ethanoate] | 1000 to 10000 | 1000 to 10000 |  |  |
| COC(=O)Nc1nc2cc(C3(O)c4ccccc4C(=O)N3c3ccc(Cl)cc3)ccc2[nH]1 (stereo not drawn) [Entry 139, methyl {5-[2-(4-chlorophenyl)-1-hydroxy-3-oxo-2,3-dihydro-1H-isoindol-1-yl]-1H-benzimidazol-2-yl}carbamate] | < 100 | < 100 |  |  |
| COC(=O)Nc1nc2ccc(C3(O)c4ccccc4C(=O)N3c3cc(N)cc(Cl)c3)cc2[nH]1 (stereo not drawn) [Entry 151, methyl {6-[2-(3-amino-5-chlorophenyl)-1-hydroxy-3-oxo-2,3-dihydro-1H-isoindol-1-yl]-1H-benzimidazol-2-yl}carbamate] | < 100 | < 100 |  |  |
| COC(=O)Nc1nc2ccc(C(=O)c3ccccc3C(=O)Nc3cccc(Cl)c3)cc2[nH]1 [Entry 395, methyl {6-[(2-{[(3-chlorophenyl)amino]carbonyl}phenyl)carbonyl]-1H-benzimidazol-2-yl}carbamate] |  |  | < 100 | < 100 |
| O=C(CCCN1CCCC1)Nc1nc2cc(C3(O)c4ccccc4C(=O)N3Cc3ccccc3)ccc2[nH]1 (stereo not drawn) [Entry 278, N-{5-[1-hydroxy-3-oxo-2-(phenylmethyl)-2,3-dihydro-1H-isoindol-1-yl]-1H-benzimidazol-2-yl}-4-pyrrolidin-1-ylbutanamide] |  |  | < 100 | < 100 |

From patent US7846959B2, “Raf modulators and methods of use” (Exelixis, Inc., priority 2004, dated 2010)
